According to patent US8759537B2, “3H-imidazo [4, 5-C] pyridine-6-carboxamides as anti-inflammatory agents” (Boehringer Ingelheim International GmbH, priority 2010, dated 2014):

Target: mPGES-1 (Homo sapiens (Human), UniProt O14684)
Test: A549 cell-based assay (PGE2 formation, IL-1β stimulated, 50% human serum)
Details: A549 cells, IL-1β 5 ng/ml, read-out: mPGES-1 inhibitory effect in the cell assay, IC50
Protocol: Although the enzymatic assay is a high throughput assay the disadvantage is that it uses a recombinant protein which is not in its natural environment. Accordingly a cellular assay was established in which a cell line of human origin (A549) expressing the mPGES-1 protein was used. In addition in order to mimic the situation in humans in which compounds can be bound to plasma proteins 50% human serum is added in the assay.
Cells were detached using Trypsin-EDTA. A549 cells were seeded in a 384-well collagene plate at a density of 7000 cells/well (50 μl) in F-12 medium containing 1% Penicillin-Streptomycin and 50% human serum. The cells were allowed to attach for 3-4 h. […] The total volume is 100 μl.
Concentrations of PGE2 in the cell free medium (10 μl) were measured using a commercially available HTRF kit from Cisbio (as described above). The PGE2 formation in the absence of test compound was taken as 100%.
IC50 values were derived from at 6-8 point titrations using conventional software.

Sequence of mPGES-1 (O14684 whole entry): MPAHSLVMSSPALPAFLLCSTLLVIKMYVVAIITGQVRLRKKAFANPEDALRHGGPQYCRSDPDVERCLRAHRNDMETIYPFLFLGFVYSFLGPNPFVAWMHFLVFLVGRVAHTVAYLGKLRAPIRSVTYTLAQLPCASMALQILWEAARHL

SMILES	IC50 [nM]
Cn1c(Nc2c(Cl)ccc(CNC(=O)C(F)F)c2Cl)nc2cc(C(=O)Nc3ccc(F)c(Cl)c3)c(OCC(F)F)cc21 [Example 159]	1
Cn1c(Nc2c(Cl)ccc(CNC(=O)C3CCCC3)c2Cl)nc2cc(C(=O)Nc3ccc(F)c(Cl)c3)c(OCC(F)F)cc21 [Example 160]	< 1
Cn1c(Nc2c(Cl)ccc(CNC(=O)C(O)C(F)(F)F)c2Cl)nc2cc(C(=O)Nc3ccc(F)c(Cl)c3)c(OCC(F)F)cc21 (centres unmarked) [Example 161]	2
Cn1c(Nc2c(Cl)ccc(CNC(=O)C(C)(F)F)c2Cl)nc2cc(C(=O)Nc3ccc(F)c(Cl)c3)c(OCC(F)F)cc21 [Example 162]	< 1
COCC(=O)NCc1ccc(Cl)c(Nc2nc3cc(C(=O)Nc4ccc(F)c(Cl)c4)c(OCC(F)F)cc3n2C)c1Cl [Example 163]	5
Cn1c(Nc2c(Cl)ccc(CNC(=O)C(N)C(F)(F)F)c2Cl)nc2cc(C(=O)Nc3ccc(F)c(Cl)c3)c(OCC(F)F)cc21 (centres unmarked) [Example 164]	15
Cn1c(Nc2c(Cl)ccc(CNC(=O)C3(C(F)(F)F)CCCC3)c2Cl)nc2cc(C(=O)Nc3ccc(F)c(Cl)c3)c(OCC(F)F)cc21 [Example 165]	< 1
Cn1c(Nc2c(Cl)ccc(CNC(=O)c3ccno3)c2Cl)nc2cc(C(=O)Nc3ccc(F)c(Cl)c3)c(OCC(F)F)cc21 [Example 166]	7
Cn1c(Nc2c(Cl)ccc(CNC(=O)C3CC(F)(F)C3)c2Cl)nc2cc(C(=O)Nc3ccc(F)c(Cl)c3)c(OCC(F)F)cc21 [Example 167]	6
Cn1c(Nc2c(Cl)ccc(CNC(=O)c3sccc3Cl)c2Cl)nc2cc(C(=O)Nc3ccc(F)c(Cl)c3)c(OCC(F)F)cc21 [Example 168]	< 1
Cn1c(Nc2c(Cl)ccc(CNC(=O)C3(C)CCCO3)c2Cl)nc2cc(C(=O)Nc3ccc(F)c(Cl)c3)c(OCC(F)F)cc21 (centres unmarked) [Example 170]	< 1
Cn1c(Nc2c(Cl)ccc(CNC(=O)C3(O)CC3)c2Cl)nc2cc(C(=O)Nc3ccc(F)c(Cl)c3)c(OCC(F)F)cc21 [Example 171]	4
Cn1c(Nc2c(Cl)ccc(CNC(=O)C3CCC3)c2Cl)nc2cc(C(=O)Nc3ccc(F)c(Cl)c3)c(OCC(F)F)cc21 [Example 172]	2
Cn1c(Nc2c(Cl)ccc(CNC(=O)C3(C(F)(F)F)CC3)c2Cl)nc2cc(C(=O)Nc3ccc(F)c(Cl)c3)c(OCC(F)F)cc21 [Example 174]	< 1
Cn1c(Nc2c(Cl)ccc(CNC(=O)C(C)(C)C(F)(F)F)c2Cl)nc2cc(C(=O)Nc3ccc(F)c(Cl)c3)c(OCC(F)F)cc21 [Example 176]	< 1
Cn1c(Nc2c(Cl)ccc(CNC(=O)C(C)(C)C)c2Cl)nc2cc(C(=O)Nc3ccc(F)c(Cl)c3)c(OCCF)cc21 [Example 177, N-(3-Chloro-4-fluoro-phenyl)-2-{2,6-dichloro-3-[(2,2-dimethyl-propionylamino)-methyl]-phenylamino}-6-(2-fluoroethoxy)-1-methyl-1H-benzimidazole-5-carboxylic acid amide]	< 1

Same assay, conditions: Table C comparison of selected benzimidazoles, A549 cells, read-out: Cell IC50

SMILES	IC50 [nM]
Cn1c(Nc2cc(CNC(=O)C(C)(C)C)ccc2Cl)nc2cc(C(=O)NCC3CC3)c(OCC(F)F)cc21 [[drawing 49] of PCT/EP2010/052799, reference compound]	> 200
